In US20250345370A1, “MICROBIAL LIBERATION OF N-METHYLSEROTONIN FROM ORANGE FIBER” (Washington University, priority 2022, published 2025):
Like-named read-outs stand apart in the source and are kept apart here.

Columns and labels:
liver gene expression = assay: RNA-Seq of liver of germ-free mice treated with 50 mg/kg/d N-methylserotonin; format: in vivo, germ-free C57BL/6J mice
Experimental: RNA-Seq of liver and colonic tissue. Frozen tissue was broken into small pieces and ground into a very fine powder under liquid nitrogen using a mortar and pestle. A 25 mg aliquot of powdered tissue was then aliquoted into shearing matrix F (MP Bio) pre-chilled in liquid nitrogen; 0.5 mL of buffer LBP (Takara) was added immediately and the mixture was placed on a 4° C. cold block. Samples were then disrupted (Biospec bead beater; 2 minutes). The remaining steps in the RNA isolation procedure were performed using a Takara Nucleospin RNA Plus kit. […] Libraries were sequenced using an Illumina Hi-Seq instrument (paired end 75 nucleotide reads; 1.43×10^7±3.74×10^6 reads/liver sample, and 3.27×10^7±1.23×10^6 reads/colon sample). Reads were aligned to the Mus musculus GRCm39 genome assembly with STAR version 2.7.0d. Gene count data were generated from the number of uniquely aligned reads (featureCounts Subread version 1.6.2a). The R package DESEQ2 was used to perform differential gene expression analysis; results were filtered based on an adjusted Benjamini and Hochberg FDR p-value<0.05. Gene set enrichment analysis was carried out using ClusterProfiler with an adjusted p-value cut-off of <0.05 and minimum gene-set size of 3; over-representation was carried out using a loge fold-change cut-off of >1.
Per2 promotes glycogen synthesis. Moreover, genetically engineered disruption of Per3 is associated with resistance to leptin with resulting weight gain, while its deletion directly leads to increased adipogenesis. […] Nfil3 serves as an important link between the gut microbiota, intestinal epithelial lipid metabolism and body composition. […] Moreover, genetic ablation of Nfil3 attenuates high fat diet-induced obesity in mice.

[1] = N-methylserotonin degradation test in bacterial monocultures; conditions: 5 ng/ml added to monocultures of the 14 strains, 72-hour period
Experimental: Experiments to determine whether N-methylserotonin is synthesized de novo by B. ovatus were carried out in 10 mL TYG with or without supplementation with tryptophan, tryptamine, serotonin, dimethylserotonin, trimethylserotonin, methyltryptamine, or S-adenosyl methionine (final concentrations; 5 mg/mL; all from Sigma). Experiments seeking to test the capacity of all 14 bacterial strains introduced into mice to degrade N-methylserotonin in vitro were carried out using 10 mL TYG and 50 ng N-methylserotonin, with samples collected every 24 hours. Assays were performed in triplicate for each condition, using the protocol described herein.
Several other experiments were performed to characterize in vitro N-methylserotonin liberation by members of the 14 strain consortia.

[2] = methanol, 50 mg orange fiber

For `CNCCc1c[nH]c2ccc(O)cc12` [N-methylserotonin], the “hepatic levels of Nfil3 mRNA” value (liver gene expression; 50 mg/kg/d vs untreated) was “statistically significantly decreased”, the “liver expression of Arntl and Clock” value (liver gene expression; 50 mg/kg/d vs untreated) was “significantly decreased expression” and the “liver expression of Per2, Per3, and Nr1d2” value (liver gene expression; 50 mg/kg/d vs untreated) was “significant increases in expression”. The “number of genes with statistically significant differences in expression in liver” value (liver gene expression; 50 mg/kg/d vs untreated, FDR adjusted p<0.05) was 716 genes, the “log2 fold-change, 0610005C13Rik (Entrez 71661)” value (liver gene expression; upregulated gene in liver: 0610005C13Rik) was 0.39 and the “log2 fold-change, 2810013P06Rik (Entrez 100503178)” value (liver gene expression; upregulated gene in liver: 2810013P06Rik) was 0.57. The “log2 fold-change, 4930523C07Rik (Entrez 67647)” value (liver gene expression; upregulated gene in liver: 4930523C07Rik) was 0.33, the “log2 fold-change, Arl13b (Entrez 68146)” value (liver gene expression; upregulated gene in liver: Arl13b) was 0.37 and the “log2 fold-change, Ccne2 (Entrez 12448)” value (liver gene expression; upregulated gene in liver: Ccne2) was 0.70. For the same molecule, the “log2 fold-change, Clic1 (Entrez 114584)” value (liver gene expression; upregulated gene in liver: Clic1) was 0.35, the “log2 fold-change, Crebrf (Entrez 77128)” value (liver gene expression; upregulated gene in liver: Crebrf) was 0.32 and the “log2 fold-change, Dixdc1 (Entrez 330938)” value (liver gene expression; upregulated gene in liver: Dixdc1) was 0.32. For the same molecule, the “log2 fold-change, Fam50a (Entrez 108160)” value (liver gene expression; upregulated gene in liver: Fam50a) was 0.41, the “log2 fold-change, Fam126b (Entrez 213056)” value (liver gene expression; upregulated gene in liver: Fam126b) was 0.31 and the “log2 fold-change, Hebp1 (Entrez 15199)” value (liver gene expression; upregulated gene in liver: Hebp1) was 0.38. The “log2 fold-change, Ihh (Entrez 16147)” value (liver gene expression; upregulated gene in liver: Ihh) was 0.74, the “log2 fold-change, Kyat1 (Entrez 70266)” value (liver gene expression; upregulated gene in liver: Kyat1) was 0.24 and the “log2 fold-change, Map1lc3b (Entrez 67443)” value (liver gene expression; upregulated gene in liver: Map1lc3b) was 0.28. The “log2 fold-change, Mbtd1 (Entrez 103537)” value (liver gene expression; upregulated gene in liver: Mbtd1) was 0.48, the “log2 fold-change, Mxi1 (Entrez 17859)” value (liver gene expression; upregulated gene in liver: Mxi1) was 0.29 and the “log2 fold-change, Pdcd4 (Entrez 18569)” value (liver gene expression; upregulated gene in liver: Pdcd4) was 0.36. For the same molecule, the “log2 fold-change, Pnldc1 (Entrez 240023)” value (liver gene expression; upregulated gene in liver: Pnldc1) was 0.83, the “log2 fold-change, Prkag2 (Entrez 108099)” value (liver gene expression; upregulated gene in liver: Prkag2) was 0.36 and the “log2 fold-change, Rcl1 (Entrez 59028)” value (liver gene expression; upregulated gene in liver: Rcl1) was 0.28. For the same molecule, the “log2 fold-change, Rps15 (Entrez 20054)” value (liver gene expression; upregulated gene in liver: Rps15) was 0.38, the “log2 fold-change, Serpina7 (Entrez 331535)” value (liver gene expression; upregulated gene in liver: Serpina7) was 0.41 and the “log2 fold-change, Smarcd2 (Entrez 83796)” value (liver gene expression; upregulated gene in liver: Smarcd2) was 0.27. For the same molecule, the “log2 fold-change, Syne3 (Entrez 212073)” value (liver gene expression; upregulated gene in liver: Syne3, treated vs untreated germ-free mice) was 0.57, the “log2 fold-change, Tbc1d10a (Entrez 103724)” value (liver gene expression; upregulated gene in liver: Tbc1d10a) was 0.61 and the “log2 fold-change, Tedc2 (Entrez 72016)” value (liver gene expression; upregulated gene in liver: Tedc2) was 0.43. The “log2 fold-change, Ube2b (Entrez 22210)” value (liver gene expression; upregulated gene in liver: Ube2b) was 0.41, the “log2 fold-change, Uchl5 (Entrez 56207)” value (liver gene expression; upregulated gene in liver: Uchl5) was 0.34 and the “log2 fold-change, Zc3h6 (Entrez 78751)” value (liver gene expression; upregulated gene in liver: Zc3h6) was 0.63. The “log2 fold-change, Zfp64 (Entrez 22722)” value (liver gene expression; upregulated gene in liver: Zfp64) was 0.41, the “log2 fold-change, Zfp960 (Entrez 449000)” value (liver gene expression; upregulated gene in liver: Zfp960) was 0.60 and the “input N-methylserotonin remaining intact/unmodified” value [1] was 97±2%. The “N-methylserotonin released after two rounds of extraction” value [2] was 31 ng, the “N-methylserotonin released in total after 15 rounds” value [2] was 171 ng and the N-methylserotonin recovered ([2]; Extraction 1) was 16 ng. For the same molecule, the N-methylserotonin recovered ([2]; Extraction 2) was 15 ng, the N-methylserotonin recovered ([2]; Extraction 3) was 16 ng and the N-methylserotonin recovered ([2]; Extraction 4) was 15 ng. For the same molecule, the N-methylserotonin recovered ([2]; Extraction 5) was 14 ng, the N-methylserotonin recovered ([2]; Extraction 6) was 13 ng and the N-methylserotonin recovered ([2]; Extraction 7) was 12 ng. The N-methylserotonin recovered ([2]; Extraction 8) was 10 ng, the N-methylserotonin recovered ([2]; Extraction 9) was 11 ng and the N-methylserotonin recovered ([2]; Extraction 10) was 10 ng. For the same molecule, the N-methylserotonin recovered ([2]; Extraction 11) was 9 ng, the N-methylserotonin recovered ([2]; Extraction 12) was 9 ng and the N-methylserotonin recovered ([2]; Extraction 13) was 8 ng. The N-methylserotonin recovered ([2]; Extraction 14) was 7 ng and the N-methylserotonin recovered ([2]; Extraction 15) was 6 ng.
